Series [1] concerns the target T1, BTK recombinant human protein (Homo sapiens, UniProt Q06187).
T1 construct: purchased Thermo PV3363
Description: Inhibitory activity against BTK (HTRF KinEASE-TK kit). It counts as biochemical. To be noted: 2 nM BTK, 10 µM ATP, 0.5 hours preincubation at 25°C; read-out: IC50 values of inhibitory activity against BTK. The protocol: Test example 1: Inhibitory activity of compounds of the present disclosure against BTK • I. Experimental materials and instruments • 1. BTK recombinant human protein (Thermo, PV3363) • 2. HTRF KinEASE-TK kit (Cisbio, 62TK0PEC) • 3. 1 M MgCl2 (Thermo, AM9530G) • 4. 1 M MnCl2 (Sigma, M1787-100ML) • 5. Adenosine 5'-triphosphate (ATP) (New England Biolabs, P0756L) • 6. DTT 2M (Sangon Biotech, B645939) • 7. Ultrapure water (Invitrogen, 10977-015) • 8. OptiPlate-384, white opaque 384-well microplate (PerkinElmer, 6007290) • 9. 96-well round-bottom plate (Corning, 3788) • 10. Biochemical incubator (Shanghai Boxun Medical & Biological Instruments Co., Ltd., BSP-100) • 11. 15-mL centrifuge tube (Corning) • 12. Benchtop high-speed centrifuge (Changsha Yingtai Instrument Co., Ltd., TD4N) • 13. Multifunctional microplate reader (PerkinElmer, EnVision) • 14. Bravo liquid handling platform (Agilent Technologies, SGC120TH34702) • II. Experimental procedure
The HTRF KinEASE-TK kit is designed to detect changes in BTK enzyme activity based on two technologies, i.e., fluorescence resonance energy transfer and time-resolved fluorescence. The kit is operated in two stages: 1) enzyme reaction stage: the enzyme reaction is initiated by adding ATP, where the enzyme phosphorylates the substrate, and the compounds are then added to competitively bind to BTK against ATP, thereby inhibiting substrate phosphorylation; and 2) detection stage: after the enzyme reaction is complete, a detection reagent is added to terminate the reaction. Different groups on the phosphorylated substrate bind to the energy donor and energy acceptor, respectively, bringing the two into close proximity. During the instrumental readout, the energy donor is excited by an external light source, which enables resonance energy transfer to the proximal energy acceptor. The acceptor, in turn, becomes excited and emits light at a specific wavelength. Thus, changes in enzyme activity can be detected by measuring the signal values, and the inhibition rate of the compounds against the target enzyme can be calculated, thereby evaluating the inhibitory effect of the compounds on BTK enzyme activity.
Preparation of enzyme reaction buffer: 5× Kinase Buffer was diluted 5-fold with ultrapure water, and then the stock solutions of MgCl2, MnCl2 and DTT were added. The final composition of the buffer was as follows: 1× Kinase Buffer, 10 mM MgCl2, 1 mM MnCl2, and 1 mM DTT.
Preparation of 5 × BTK working solution: The BTK (5.17 µM) stock solution was removed from -20°C storage. Given that the BTK concentration in the enzyme reaction system was 2 nM and the concentration of the 5× working solution was 10 nM, the BTK stock solution was diluted 517-fold with the enzyme reaction buffer according to the volume required for the experiment. The diluted solution was then added to the 384-well plate at 2 µL per well. The plate was placed in a plate spinner and centrifuged at 2000 rpm for 1 minute to bring the liquid to the bottom of the wells.
[…]. Given that the SEB concentration in the enzyme reaction system was 50 nM and the concentration of the 5× working solution was 250 nM, the SEB stock solution was diluted 10-fold with the enzyme reaction buffer according to the volume required for the experiment. The diluted solution was then added to the 384-well plate at 2 µL per well. The plate was placed in a plate spinner and centrifuged at 2000 rpm for 1 minute to bring the liquid to the bottom of the wells.
The test compounds dissolved in 100% DMSO at 20 mM were diluted with 100% DMSO to a concentration of 200 µM, which represents the 200× concentration of the highest compound concentration point in the reaction system. The compounds at this concentration were then subjected to 10-point 3-fold serial dilution with 100% DMSO. The positive control wells and negative control wells were set with 100% DMSO. […]
In general terms: Time-resolved FRET reads energy transfer from a long-lived donor to a nearby acceptor.

The target of series [2] is hERG potassium channels (Homo sapiens, UniProt Q12809). Description: in vitro.

For one compound, IC50 results are on record in patent EP4782437A1, “HETEROARYL COMPOUND, AND PREPARATION METHOD THEREFOR AND USE THEREOF IN MEDICINE” (Jiangsu Hengrui Pharmaceuticals Co., Ltd., priority 2023, dated 2025).

Where only a bound is given, the exact number is not on record here.

hERG potassium channels, sequence (Q12809 whole entry): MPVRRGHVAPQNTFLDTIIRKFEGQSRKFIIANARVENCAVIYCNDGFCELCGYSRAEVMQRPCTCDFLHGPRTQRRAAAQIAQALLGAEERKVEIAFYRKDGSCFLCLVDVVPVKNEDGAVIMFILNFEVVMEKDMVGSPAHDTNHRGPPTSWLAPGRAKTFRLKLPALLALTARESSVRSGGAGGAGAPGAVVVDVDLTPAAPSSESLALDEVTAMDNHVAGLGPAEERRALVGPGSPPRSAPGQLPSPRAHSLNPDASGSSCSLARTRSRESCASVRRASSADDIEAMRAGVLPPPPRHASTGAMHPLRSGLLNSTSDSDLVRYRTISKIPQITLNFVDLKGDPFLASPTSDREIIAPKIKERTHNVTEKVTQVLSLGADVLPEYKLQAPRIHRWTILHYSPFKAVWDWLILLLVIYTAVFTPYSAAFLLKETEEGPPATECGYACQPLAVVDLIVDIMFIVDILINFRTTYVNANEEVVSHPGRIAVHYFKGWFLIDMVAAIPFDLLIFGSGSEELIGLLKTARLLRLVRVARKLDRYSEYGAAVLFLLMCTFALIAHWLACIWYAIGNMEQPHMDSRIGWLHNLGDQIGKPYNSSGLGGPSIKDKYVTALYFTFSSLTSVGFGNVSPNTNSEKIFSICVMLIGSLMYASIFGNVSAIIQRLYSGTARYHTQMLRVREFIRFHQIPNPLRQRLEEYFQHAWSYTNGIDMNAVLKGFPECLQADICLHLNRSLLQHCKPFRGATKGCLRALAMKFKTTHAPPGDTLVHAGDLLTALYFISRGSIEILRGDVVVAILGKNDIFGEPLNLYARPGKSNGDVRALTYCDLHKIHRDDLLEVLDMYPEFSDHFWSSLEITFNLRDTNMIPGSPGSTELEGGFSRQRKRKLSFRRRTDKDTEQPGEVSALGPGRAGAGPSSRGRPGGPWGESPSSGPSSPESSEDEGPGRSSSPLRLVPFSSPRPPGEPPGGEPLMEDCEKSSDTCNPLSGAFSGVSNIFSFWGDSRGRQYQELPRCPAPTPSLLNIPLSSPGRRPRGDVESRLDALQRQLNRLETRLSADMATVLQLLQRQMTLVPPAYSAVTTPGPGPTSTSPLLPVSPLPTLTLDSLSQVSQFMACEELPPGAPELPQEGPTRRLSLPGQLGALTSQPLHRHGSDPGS
T1 sequence (Q06187 whole entry): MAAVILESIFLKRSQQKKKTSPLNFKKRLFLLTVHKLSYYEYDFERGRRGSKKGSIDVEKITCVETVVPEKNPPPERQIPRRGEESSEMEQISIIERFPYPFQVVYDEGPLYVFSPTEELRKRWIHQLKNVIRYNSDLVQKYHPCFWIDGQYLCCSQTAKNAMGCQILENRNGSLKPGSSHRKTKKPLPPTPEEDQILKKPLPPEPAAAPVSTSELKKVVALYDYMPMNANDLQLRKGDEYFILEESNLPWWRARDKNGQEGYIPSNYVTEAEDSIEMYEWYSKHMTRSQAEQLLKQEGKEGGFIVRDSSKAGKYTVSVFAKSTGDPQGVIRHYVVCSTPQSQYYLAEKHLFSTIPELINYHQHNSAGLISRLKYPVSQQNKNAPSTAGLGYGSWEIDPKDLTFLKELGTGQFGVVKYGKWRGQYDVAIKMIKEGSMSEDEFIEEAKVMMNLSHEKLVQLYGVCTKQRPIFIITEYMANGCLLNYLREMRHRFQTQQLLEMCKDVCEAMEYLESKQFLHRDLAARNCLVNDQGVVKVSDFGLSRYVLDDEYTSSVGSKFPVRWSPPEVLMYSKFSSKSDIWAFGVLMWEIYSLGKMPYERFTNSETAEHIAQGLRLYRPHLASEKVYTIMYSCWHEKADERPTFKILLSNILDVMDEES

As for `C=CC(=O)N(C)CCOc1c(N)ncnc1-c1cc(F)cc(NC(=O)c2cc3c(cc2F)C2(CC2)CO3)c1C` [Example 3, N-(3-(6-amino-5-(2-(N-methacrylamido)ethoxy)pyrimidin-4-yl)-5-fluoro-2-methylphenyl)-5-fluoro-2H-spiro[benzofuran-3,1'-cyclopropane]-6-carboxamide], the results for the IC50 in series [1] and in series [2] were 8.3 nM and more than 12300 nM, respectively.

By IC50 is commonly meant the midpoint of a concentration-inhibition curve.
